Data published in patent US4939133A, “N-substituted-2-hydroxy-α-oxo-benzeneacetamides and pharmaceutical compositions having activity as modulators of the arachidonic acid cascade” (Warner-Lambert Company, priority 1985, dated 1990).
“And” between values parts separate entries of the source, which are not always exact repeats. Identical values can stand only once. Like-named read-outs stand apart in the source and are kept apart here.

Tests used:
[1] = system: Human Leukocyte Lipoxygenase; assay: Human Leukocyte Lipoxygenase Assay (LDA-H / LDAH); assay type: biochemical; conditions: for IC50: 50% reduction of reaction rate vs control, E -number means X 10^-no.
Description: Human Leukocyte Lipoxygenase Assay (LDA-H)
Whole blood is collected from normal volunteers and spun in a refrigerated centrifuge for four minutes at 1°-6° C. at 3800 g. The buffy coat is manually separated and washed twice with chilled 0.83% NH4 Cl and centrifuged at 1000 RPM for ten minutes at 4° C. The white cell is suspended in culture media-EMEM supplemented with 6% Agamma human serum, tricine buffer, and neomycin and recentrifuged at 1000 g to yield a pellet containing the leukocytes used for the preparation of the acetone pentane powder.
The acetone-pentane powder is prepared utilizing a modification of the procedure reported for human platelet lipoxygenase. See Siegel, et al, Arachidonate Metabolism via Lipoxygenase and 12-L-hydroperoxy-5-Eicostetraenoic acid Peroxidase Sensitive to Antiinflammatory Drugs, Proc. Natl. Acad. Sci., USA 77:308, 1980 and D. P. Wallach and V. R. Brown, a novel Preparation of Human Platlet Lipoxygenase, Biochem. Biophys. Acta. 663:361, 1981. Buffy coat prepared above is resuspended in 5-7 volumes of cold 0.1M Tris buffer, pH 7.4 containing 0.154M NaCl. The suspension is centrifuged at 13,300 g for ten minutes at 4° C. The resultant pellet was retained, resuspended in five volumes of cold acetone, recentrifuged at 13,300 g and resuspended in five volumes of cold pentane. The pentane suspension is centrifuged for ten minutes at 13,300 g to give a pellet which is dried in the cold under vacuum with periodic pulverization. The dry powder is stable for several weeks when stored at -88° C.
Enzyme stock solution is prepared in the following manner. About 15 mg of the acetone-pentane powder sis suspended in 4 ml of cold tris buffer (0.1M, pH 7.4), allowed to stand for five minutes, and homogenized thorougly. The homogenate is sonicated three times for 15 seconds each time, diluted to 7 ml with cold tris buffer (0.1M, pH 7.4), and centrifuged at 4° C. for 60 minutes at 13,300 g. The supernatent is retained and diluted to a total of 10 ml with cold tris buffer (0.1M, pH 7.4) to give the stck enzyme solution. Additional dilutions of 2-50 fold are done as necessary to locate optimal enzyme reaction rate in the assay described below.
Substrate solution is prepared at 100 μM or 1.0 μM concentrations of arachidonic acid or linoleic acid in 0.1M tris buffer, pH 9.0 containing 20% ethanol.
The enzyme reaction is followed spectrophotometrically by the appearance of a conjugated diene product at 234 nm. The reaction is monitored at 24° C. using a Gilford Model 2600 spectrophotometer. […] The effects of inhibitors on the reaction are compared with control reactions run under indentical conditions. Routinely, each compounds of the present invention is incubated with the enzyme for five minutes prior to addition of substrate to initiate the reaction. Inhibition expressed as IC50 as molar concentration of the compound required to reduce reaction rate to 50% control.

[2] = molecular target: T1, human leukocyte 5-lipoxygenase (Homo sapiens, UniProt P09917); assay: 5-Lipoxygenase inhibition in human leukocytes, 5-HETE formation (5LOA1, 5LOA in Table 6); assay type: cell-based; conditions: 50% inhibition of 5-HETE formation, E -number means X 10^-no.
T1 construct: endogenous in cells; host or cells: leukocytes from fresh blood of normal adult men
T1 sequence (P09917 1-674): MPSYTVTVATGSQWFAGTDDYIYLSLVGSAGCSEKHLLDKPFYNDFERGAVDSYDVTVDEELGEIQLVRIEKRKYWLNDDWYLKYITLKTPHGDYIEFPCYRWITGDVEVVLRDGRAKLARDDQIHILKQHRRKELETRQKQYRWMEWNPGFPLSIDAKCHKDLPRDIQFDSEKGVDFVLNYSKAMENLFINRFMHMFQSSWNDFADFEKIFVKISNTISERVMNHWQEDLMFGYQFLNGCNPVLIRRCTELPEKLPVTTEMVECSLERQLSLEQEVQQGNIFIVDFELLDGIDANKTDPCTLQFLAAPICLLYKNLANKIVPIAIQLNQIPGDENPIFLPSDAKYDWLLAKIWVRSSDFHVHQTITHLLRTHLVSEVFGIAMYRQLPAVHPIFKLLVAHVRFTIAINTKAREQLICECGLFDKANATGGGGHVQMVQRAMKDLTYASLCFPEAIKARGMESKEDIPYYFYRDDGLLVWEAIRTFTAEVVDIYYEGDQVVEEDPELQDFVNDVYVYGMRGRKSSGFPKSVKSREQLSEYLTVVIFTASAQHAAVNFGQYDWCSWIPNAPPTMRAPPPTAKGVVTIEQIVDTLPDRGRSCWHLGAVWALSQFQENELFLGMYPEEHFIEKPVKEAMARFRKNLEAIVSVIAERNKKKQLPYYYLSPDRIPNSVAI
Text: To Evaluate the Effect of Each Compounds as a 5-Lipoxygenase Inhibitor in Comparison to Standard Reference Agents in Human Leukocytes (5LOAl)
The purpose of this assay is to evaluate the activity of each compound as an inhibitor of human leukocyte 5-lipoxygenase.
Arachidonic acid and calcium ionophore A23187 are obtained from Sigma (St. Louis, MO). Silica gel plates, GF are obtained from Analtech (Newark, DE). Arachidonic acid, (1-^14 C) and 5-HETE (^3 H), 5-(S)-hydroxy-6-trans, 8,11,14-cis eicosatetraenoic acid, are obtained from New England Nuclear (Boston, MA). Six percent Dextran-70 in 0.9% NaCl is obtained from Cuffer Labs (Berkeley, CA).
Preparation of Leukocytes
Fresh blood from normal adult men who had not received any drugs for at least the previous five days is obtained by the Community Research Clinic (WL/PD) using venipuncture and collected into heparinized vacuotainer tubes. To every 100 ml of pooled blood is added 25 ml of dextran solution (6% dextran -70 in 0.9% sodium chloride containing 3% dextrose) and this is mixed gently in a plastic cylinder. The mixture is left to stand at room temperature for at least 90 minutes. The upper layer which is rich in leukocytes and platelets is then carefully decanted into 50 ml plastic tubes and centrifuged at about 100×g for eight minutes in and IEC centrifuge and rotor number 269 (about 600 rpm). The supernatant fluid is discarded and the pellet is resuspended in 10 ml of 0.87% ammonium chloride for exactly two minutes. This procedure is to lyse completely contaminating red blood cells. Leukocytes are then separated by centrifugation for ten minutes. The pellet is washed three times by suspension in 20 ml PBS (sodium chloride, 7.1 g; Na2 HPO4, 1.15 g; KH2 PO4,0.2 g, and KCl, 0.2 g/L) and centrifuged as before. The final pellet is suspended in PBS containing 0.87 mM CaCl2. Viability of the cells is then checked using trypan blue exclusion method and is found to be over 90%.
5-Lipoxygenase Enzyme Assay
Leukocyte cells in suspension (0.98 ml) are incubated with or without test compounds for five minutes at 37° C. in a shaking water bath. At this time a […] mixture is perpared per 1 ml of cell suspension: 100 mM arachidonic acid, 1 μl, 0.05 μCi ^14 C-arachidonic acid in 5 μl; 1 mM calcium ionophore A23187, 10 μl (1). This mixture is added and the incubation continued for five minutes. The reaction is stopped by adding four volumes of absolute ethanol and the mixture is kept in ice for 30 minutes. The floculated precipitate is separated by centrifugation at about 37,000×g for 20 minutes (Beckman Instruments rotor number 40). The alcohol extract is taken to dryness under a stream of nitrogen and the residue is dissolved in 100-200 μl absolute ethanol. At the time any turbidity is removed by centrifugation. An aliquot (25-50 μl) is applied onto 20×20 cm silica gel TLC plate and developed using the following solvent system: diethyl ether, petroleum ether (2040°C.),acetic acid (50:50: 1 v/v). Zones of 1 cm apart are scraped from the TLC plate and transferred to mini-vials. Methanol (0.5 ml) is added to dissolve the radioactivity adsorbed to the silica gel and scintillation fluid (H. P., Beckman), 5 ml is then added and vials are counted in a liquid scintillation counter. A sample of ^3 H-5-HETE is applied and used for the identification of the formed 5-HETE. Total radioactivity in the test as well as the control samples are normalized and the amount of 5-HETE present is calculated accordingly.
IC50 values are defined as the concentrations of test agents which caused a 50% inhibition of the formation of 5-HETE as compared to control and are determined by inspection of the concentration-response curves.

CCCCCCCCCCc1ccc(NC(=O)c2cc3ccccc3cc2O)cc1 [Example 49, 2-Naphthalenecarboxamide, N-(4-decylphenyl)-3-hydroxy]
% Inhibition (LDAH) ([1]; 2.50 E -5 M): 0.0%

O=C(Nc1ccc(CCc2ccc(O)c(O)c2)cc1)c1ccccc1O [Example 47, Benzamide, N-[4-[2-(3,4-dihydroxyphenyl)ethyl]phenyl]-2-hydroxy]
% Inhibition (LDAH) ([1]; 2.50 E -5 M): 0.0%

COc1ccc(CCc2ccc(NC(=O)c3ccccc3O)cc2)cc1OC [Example 48, N-[4-[2-(3,4-dimethoxyphenyl)ethyl]phenyl]-2-hydroxybenzamide]
% Inhibition (LDAH) ([1]; 2.50 E -5 M): 0.0% | IC50 ([2]; read-out: IC50 (5LOA)): 4.2 µM and 3.5 µM

CC(C)(C)c1cccc(C(=O)C(=O)Nc2ccc(CCc3ccc(O)c(O)c3)cc2)c1O [Example 55, N-[4-[2-(3,4-dihydroxyphenyl)ethyl]phenyl]-3-(1,1-dimethylethyl)-2-hydroxy-α-oxobenzenacetamide]
IC50 [1]: 3.9 µM | IC50 ([2]; read-out: IC50 (5LOA)): 7.1 µM and 8.17 µM

COc1ccc(CCc2ccc(NC(=O)c3cccc(Cl)c3O)cc2)cc1OC [Example 23]
IC50 [1]: 4.1 µM

CCCCCCCCCCc1ccc(NC(=O)c2cccc(C)c2O)cc1 [Example 22]
IC50 [1]: 0.68 µM

Cc1ccc(C(=O)N(C)c2ccc(CCc3ccc(O)c(O)c3)cc2)c(O)c1 [Example 43]
IC50 ([2]; read-out: IC50 (5LOA)): 5.3 µM

COc1ccc(CCc2ccc(N(C)C(=O)C(=O)c3ccccc3O)cc2)cc1OC [Example 51, N-Methyl-N-[4-(2-(3,4-dimethoxyphenyl)ethyl)phenyl]-2-hydroxy-α-oxo-benzeneacetamide]
IC50 ([2]; read-out: IC50 (5LOA)): 11.1 µM

CCCCCCCCCCc1ccc(NC(=O)c2ccc(Cl)cc2O)cc1 [Example 7]
IC50 [1]: 2.8 µM

COc1ccc(CCc2ccc(NC(=O)C(=O)c3cccc(C(C)(C)C)c3O)cc2)cc1OC [Example 54, N-[4-[2-(3,4-dimethoxyphenyl)ethyl]phenyl]-3-(1,1-dimethylethyl)-2-hydroxy-α-oxo-benzeneacetamide]
IC50 [1]: 0.28 µM

CCCCCCCCCCc1ccc(NC(=O)c2cc(Br)ccc2O)cc1 [Example 12]
% Inhibition (LDAH) ([1]; 2.50 E -5 M): 0.0%

CCCCCCCCCCc1ccc(NC(=O)c2ccccc2O)cc1 [Example 13]
% Inhibition (LDAH) ([1]; 2.50 E -5 M): 0.0%

COc1ccc(CCc2ccc(NC(=O)C(=O)c3cccc(Cl)c3O)cc2)cc1OC [Example 60, 3-chloro-N-[4-[2-(3,4-dimethoxyphenyl)ethy]-phenyl]-2-hydroxy-α-oxo-benzenacetamide]
IC50 [1]: 120 µM

O=C(Nc1ccc(CCc2ccc(Cl)c(Cl)c2)cc1)c1ccc(Cl)cc1O [Example 36]
% Inhibition (LDAH) ([1]; 2.50 E -5 M): 0.0%

COc1cc(CCc2ccc(NC(=O)c3ccc(C)cc3O)cc2)ccc1O [Example 26]
IC50 [1]: 24 µM

O=C(Nc1ccc(CCc2ccc(Cl)c(Cl)c2)cc1)c1cccc(Cl)c1O [Example 34]
IC50 ([2]; read-out: IC50 (5LOA)): 39.2 µM

COc1ccc(CCc2ccc(NC(=O)C(=O)c3ccccc3O)cc2)cc1OC [Example 52, N-[4-(2-(3,4-dimethoxyphenyl)ethyl)phenyl]-2-hydroxy-α-oxo-Benzeneacetamide]
IC50 [1]: 0.184 µM | IC50 ([2]; read-out: IC50 (5LOA)): 5 µM

COc1ccc(CCc2ccc(NC(=O)c3cc4ccccc4cc3O)cc2)cc1OC [Example 38]
% Inhibition (LDAH) ([1]; 2.50 E -5 M): 0.0%

CCCCCCCCCCc1ccc(NC(=O)c2c(O)cccc2O)cc1 [Example 25]
% Inhibition (LDAH) ([1]; 8.00 E -5 M): 0.0%

CCCCCCCCCCc1ccc(NC(=O)c2cc([N+](=O)[O-])ccc2O)cc1 [Example 21, N-(4-n-decylphenyl)-2-hydroxy-5-nitro-benzamide]
IC50 ([2]; IC50 (5LOA)): 20.8 µM

O=C(Nc1ccc(CCc2ccc(O)c(O)c2)cc1)C(=O)c1ccccc1O [Example 53, N-[4-[2-(3,4-dihydroxyphenyl)ethyl]-phenyl]-2-hydroxy-α-oxo-benzeneacetamide]
IC50 [1]: 17 µM | IC50 ([2]; read-out: IC50 (5LOA)): 3.38 µM

COc1ccc(C(=O)Nc2ccc(CCc3ccc(O)c(O)c3)cc2)c(O)c1 [Example 8, N-[4-[2-(3,4-Dihydroxyphenyl)ethyl]phenyl]-2-hydroxy-4-methoxybenzamide]
IC50 ([2]; read-out: IC50 (5LOA)): 7.1 µM
